SMILES strings stand for the structures.

The data set has as its system MDA‐MB‐231 tumor. Briefly: PET imaging in MDA-MB-231 breast cancer xenograft model. Type of data set: in vivo, NSG mice. As to the method: Given the specificity of [^18F]1 and [^18F]2 and the promising in vivo biodistribution profile of [^18F]1, we established a small‐animal human breast tumor xenograft model in NSG mice subcutaneously implanted with MDA‐MB‐231 cells. […] For blocking studies, PSB‐12651 (15, Figure 6) or unlabeled 1 were used.
FIGURE 6 PET imaging data in an MDA‐MB‐231 tumor mouse model. (A). PET images, CT scans, and merged images of [^18F]2 in the MDA‐MB‐231 tumor mouse model 90 min after tracer injection. White arrows mark the tumor positions. (B). Quantitative PET analysis of [^18F]2 uptake: activity concentration of [^18F]2 in muscle and tumor tissues 90 min after tracer injection (left) and respective tumor‐to‐muscle ratio (right, n = 5 tumors). (C). PET‐CT images of [^18F]1 and [^18F]FDG in the MDA‐MB‐231 tumor mouse model, 260 min ([^18F]1), or 75 min ([^18F]FDG) after injection. […] White arrows mark the positions of tumors. (D). Quantitative PET analysis of [^18F]1 uptake: activity concentration of [^18F]1 and [^18F]FDG in muscle and tumor tissues (left) and tumor‐to‐muscle ratios (right) after 260 min. [^18F]1: n = 18 tumors, [^18F]1 plus unlabeled 1 block: n = 8 tumors, [^18F]1 plus compound 15 block: n = 6 tumors, [^18F]FDG: n = 18 tumors E. Ex vivo analysis of [^18F]1 uptake as measured by gamma counter: activity concentrations of [^18F]1 in muscle and tumor tissues after 260 min without and with blocking (left) and tumor‐to‐muscle ratios (right). [^18F]1: n = 6 tumors, [^18F]1 plus unlabeled 1 block: n = 6 tumors, [^18F]1 plus compound 15 block: n = 5 tumors.^# relative to the respective muscle, *relative to [^18F]1 without blocker, relative to the unblocked tumor; *<0.05; **<0.01, ***<0.001,^#<0.05; ^## <0.01, ^###<0.001, <0.05; <0.01, <0.001, ns: non‐significant, unpaired t‐test.
MDA-MB-231 cells were cultivated in DMEM/GlutaMAX, supplemented with 10 % fetal calf serum, 100 U/mL penicillin, and 100 µg/mL streptomycin and L-glutamine to a final concentration of 8 mmol/L. AsPC-1 cells were cultivated in RPMI, supplemented with 10 % fetal calf serum, 100 U/mL penicillin, and 100 µg/mL streptomycin and L-glutamine to a final concentration of 8 mmol/L. 5 x 10^6 MDA-MB-231 or 1x 10^6 AsPC-1 cells were injected subcutaneously into the shoulder region of 7 to 12 weeks old NSG (NOD.Cg-Prkdc^scid Il2rg^tm1Wjl/SzJ) mice (Charles River Laboratories). Two tumors were inoculated per animal, and growth was followed by digital caliper measurements (volume = ½ (length * width^2)).
Adult C57bl/6 (biodistribution study, 19.8±1.3 g) or tumor-bearing NSG mice (22.2±2.2 g) were anesthetized by isoflurane/O2, and one lateral tail vein was cannulated using a 27 G needle. A respective radiotracer (~ 390 kBq/g body weight) was injected as a bolus via the tail vein, and subsequent PET scanning was performed. A ~1000-fold excess of unlabeled JMS0414 (14 for [^18F]MRS-4648 ([^18F]2)), unlabeled PSB-19427 (1), or PSB-12651 (15) (for [^18F]PSB-19427 ([^18F]1)) was injected into a subgroup of tumor-bearing mice 10 min before radiotracer injection in the blocking studies. PET imaging studies were carried out using a submillimeter high resolution (0.7 mm full width at half-maximum) small animal scanner (32 module quadHIDAC, Oxford Positron Systems Ltd., Oxford, UK) with a uniform spatial resolution (<1 mm) over a large cylindrical field (165 mm diameter, 280 mm axial length). […]

Turning to `Cn1c(=O)n([C@@H]2O[C@H](COP(=O)(O)CP(=O)(O)O)[C@@H](O)[C@H]2O)cc/c1=N/OCc1ccc(-c2cn(CC[18F])nn2)cc1` [[^18F]2, [^18F]-{[(2R,3S,4R,5R)-5-(4-{[(4-{1-[2-(fluoro)ethyl]-1H-1,2,3-triazol-4-yl}benzyl)-oxy]imino}-3-methyl-2-oxo-3,4-dihydropyrimidin-1(2H)-yl)-3,4-dihydroxytetra-hydrofuran-2-yl]methoxy}methylenebisphosphonic acid], the “Tumor accumulation” value (MDA‐MB‐231 model, 90 min PET) is given as “very low tumor accumulation”. Consider `CCCN(Cc1ccc(-c2cn(CCF)nn2)cc1)c1nc(Cl)nc2c1ncn2[C@@H]1O[C@H](COP(=O)(O)CP(=O)(O)O)[C@@H](O)[C@H]1O` [compound 1], for which the Muscle uptake (MDA‐MB‐231 model, PET, after 260 min) is recorded as 0.86% ± 0.24 % ID/mL. For the setting “MDA‐MB‐231 tumor, PET, after 260 min”, the Tumor uptake was 3.60% ± 1.27 %ID/mL.

The values above are taken from publication PMC13077603, “Fluorine‐18‐Labeled Nucleotide Analogs Targeting Ecto‐5'‐Nucleotidase (CD73) for Positron Emission Tomography Imaging of Solid Tumors” (Angewandte Chemie (International Ed. in English), 2026).
